Test results: ChEMBL document CHEMBL1944579, “Discovery of a potent and orally bioavailable benzolactam-derived inhibitor of Polo-like kinase 1 (MLN0905)” (J Med Chem, 2012)
Each block holds one compound with its values, some of them ahead of it.

Experiments:
[1] = Drug uptake in tumor of nude mouse xenografted with human HT-29 cells at 50 mg/kg, po after 24 hrs; assay type: ADME, organism-based, Neoplasm; design: dose 50 mg/kg, route oral; settings: read-out: Drug uptake
[2] = Drug uptake in tumor of nude mouse xenografted with human HT-29 cells at 50 mg/kg, po after 48 hrs; assay type: ADME, organism-based, Neoplasm; design: dose 50 mg/kg, route oral; settings: read-out: Drug uptake
[3] = Drug uptake in tumor of nude mouse xenografted with human HT-29 cells at 50 mg/kg, po after 72 hrs; assay type: ADME, organism-based, Neoplasm; design: dose 50 mg/kg, route oral; settings: read-out: Drug uptake
[4] = Volume of distribution at steady state in Sprague-Dawley rat at 1 mg/kg, iv; assay type: ADME, organism-based; design: dose 1 mg/kg, route intravenous; settings: in vivo, read-out: Vdss
[5] = Half life in Sprague-Dawley rat at 1 mg/kg, iv; assay type: ADME, organism-based; design: dose 1 mg/kg, route intravenous; settings: in vivo
[6] = Plasma clearance in nude NCR mouse at 2 mg/kg, iv; assay type: ADME, organism-based; design: dose 2 mg/kg, route intravenous
[7] = Volume of distribution at steady state in nude NCR mouse at 2 mg/kg, iv; assay type: ADME, organism-based; design: dose 2 mg/kg, route intravenous; settings: in vivo, read-out: Vdss
[8] = Half life in nude NCR mouse at 2 mg/kg, iv; assay type: ADME, organism-based; design: dose 2 mg/kg, route intravenous; settings: in vivo
[9] = Cmax in Sprague-Dawley rat at 5 mg/kg, po; assay type: ADME, organism-based; design: dose 5 mg/kg, route oral; settings: in vivo
[10] = Tmax in Sprague-Dawley rat at 5 mg/kg, po; assay type: ADME, organism-based; design: dose 5 mg/kg, route oral; settings: in vivo
[11] = Oral bioavailability in Sprague-Dawley rat at 5 mg/kg; assay type: ADME, organism-based; settings: in vivo
[12] = Cmax in nude NCR mouse at 12.5 mg/kg, po; assay type: ADME, organism-based; design: dose 12.5 mg/kg, route oral; settings: in vivo
[13] = Tmax in nude NCR mouse at 12.5 mg/kg, po; assay type: ADME, organism-based; design: dose 12.5 mg/kg, route oral; settings: in vivo
[14] = Oral bioavailability in nude NCR mouse at 12.5 mg/kg; assay type: ADME, organism-based; settings: in vivo
[15] = Drug uptake in tumor of nude mouse xenografted with human HT-29 cells at 25 mg/kg, po after 24 hrs; assay type: ADME, organism-based, Neoplasm; design: dose 25 mg/kg, route oral; settings: read-out: Drug uptake
[16] = Drug uptake in tumor of nude mouse xenografted with human HT-29 cells at 25 mg/kg, po after 48 hrs; assay type: ADME, organism-based, Neoplasm; design: dose 25 mg/kg, route oral; settings: read-out: Drug uptake
[17] = Drug uptake in tumor of nude mouse xenografted with human HT-29 cells at 25 mg/kg, po after 72 hrs; assay type: ADME, organism-based, Neoplasm; design: dose 25 mg/kg, route oral; settings: read-out: Drug uptake
[18] = Drug uptake in tumor of nude mouse xenografted with human HT-29 cells at 12.5 mg/kg, po after 24 hrs; assay type: ADME, organism-based, Neoplasm; design: dose 12.5 mg/kg, route oral; settings: read-out: Drug uptake
[19] = Drug uptake in tumor of nude mouse xenografted with human HT-29 cells at 12.5 mg/kg, po after 48 hrs; assay type: ADME, organism-based, Neoplasm; design: dose 12.5 mg/kg, route oral; settings: read-out: Drug uptake
[20] = Drug uptake in tumor of nude mouse xenografted with human HT-29 cells at 12.5 mg/kg, po after 72 hrs; assay type: ADME, organism-based, Neoplasm; design: dose 12.5 mg/kg, route oral; settings: read-out: Drug uptake
[21] = Drug uptake in tumor of nude mouse xenografted with human HT-29 cells at 6.25 mg/kg, po after 24 hrs; assay type: ADME, organism-based, Neoplasm; design: dose 6.25 mg/kg, route oral; settings: read-out: Drug uptake
[22] = Drug uptake in tumor of nude mouse xenografted with human HT-29 cells at 6.25 mg/kg, po after 48 hrs; assay type: ADME, organism-based, Neoplasm; design: dose 6.25 mg/kg, route oral; settings: read-out: Drug uptake
[23] = Drug uptake in tumor of nude mouse xenografted with human HT-29 cells at 6.25 mg/kg, po after 72 hrs; assay type: ADME, organism-based, Neoplasm; design: dose 6.25 mg/kg, route oral; settings: read-out: Drug uptake
[24] = Toxicity in po dosed nude mouse administered once daily; assay type: organism-based; settings: in vivo
[25] = Toxicity in po dosed nude mouse administered qd for 1 day in a week; assay type: organism-based; settings: in vivo
[26] = Toxicity in po dosed nude mouse administered qd for 3 days in a week; assay type: organism-based; settings: in vivo
[27] = Plasma clearance in Sprague-Dawley rat at 1 mg/kg, iv; assay type: ADME, organism-based; design: dose 1 mg/kg, route intravenous

concentration at 24 h [1]: 1.08 µM
concentration at 48 h [2]: 0.332 µM
concentration at 72 h [3]: 0.0603 µM
SMILES: Cc1ncc(CCCN(C)C)cc1Nc1ncc2c(n1)-c1ccc(Cl)cc1NC(=S)C2

SMILES: Cc1ncc(CCCN(C)C)cc1Nc1ncc2c(n1)-c1ccc(C(F)(F)F)cc1NC(=S)C2
Vd [4]: 10.2 L/kg
half-life [5]: 4.7 h
clearance [6]: 2.5 L/h/kg
Vd [7]: 6.2 L/kg
half-life [8]: 3.4 h
Cmax [9]: 0.335 µM
Tmax [10]: 4 h
bioavailability [11]: 72%
Cmax [12]: 0.72 µM
Tmax [13]: 4 h
bioavailability [14]: 45%
concentration at 24 h [15]: 0.92 µM
concentration at 48 h [16]: 0.369 µM
concentration at 72 h [17]: 0.163 µM
concentration at 24 h [18]: 0.339 µM
concentration at 48 h [19]: 0.353 µM
concentration at 72 h [20]: 0.139 µM
concentration at 24 h [21]: 0.239 µM
concentration at 48 h [22]: 0.121 µM
concentration at 72 h [23]: 0.098 µM
MTD [24]: 12.5 mg/kg
MTD at 24 h [25]: 50 mg/kg
MTD at 72 h [26]: 25 mg/kg
concentration at 24 h [1]: 1.47 µM
concentration at 48 h [2]: 0.476 µM
concentration at 72 h [3]: 0.376 µM
clearance [27]: 2.3 L/h/kg
